# Measurements taken from ChEMBL document CHEMBL1201862, “PubChem BioAssay data set” (2004).
# Calls of active or inactive are those of the source.
# Experiments:
# Exodeoxyribonuclease V = biological target: T1, Exodeoxyribonuclease V (Escherichia coli (strain K12), UniProt P04993+P07648+P08394); experiment: RecBCD inhibition via phage-restricted bacterial growth – absorbance, V66 E. coli, mutant T4 phage, counter-screen for AddAB inhibitor project, dose response (AID 492957); format: functional, cell-based, Escherichia coli str. K-12 substr. MG1655
# T1 sequence (P04993 whole entry): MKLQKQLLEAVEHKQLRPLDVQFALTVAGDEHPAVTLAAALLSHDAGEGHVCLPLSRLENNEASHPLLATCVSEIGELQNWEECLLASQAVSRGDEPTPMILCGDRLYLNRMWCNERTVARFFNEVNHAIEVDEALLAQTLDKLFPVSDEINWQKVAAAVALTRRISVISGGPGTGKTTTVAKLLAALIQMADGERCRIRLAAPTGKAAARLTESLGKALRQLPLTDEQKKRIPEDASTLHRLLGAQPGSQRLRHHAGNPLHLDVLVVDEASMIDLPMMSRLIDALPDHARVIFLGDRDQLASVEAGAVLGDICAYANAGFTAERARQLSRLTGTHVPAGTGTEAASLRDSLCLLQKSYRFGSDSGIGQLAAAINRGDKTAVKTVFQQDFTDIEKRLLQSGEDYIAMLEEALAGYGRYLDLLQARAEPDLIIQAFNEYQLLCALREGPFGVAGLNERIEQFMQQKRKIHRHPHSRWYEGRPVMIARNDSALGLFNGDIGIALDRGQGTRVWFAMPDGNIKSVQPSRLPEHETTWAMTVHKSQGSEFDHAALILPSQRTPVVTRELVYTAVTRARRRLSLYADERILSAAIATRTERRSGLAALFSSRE
# T1 sequence (P07648 whole entry): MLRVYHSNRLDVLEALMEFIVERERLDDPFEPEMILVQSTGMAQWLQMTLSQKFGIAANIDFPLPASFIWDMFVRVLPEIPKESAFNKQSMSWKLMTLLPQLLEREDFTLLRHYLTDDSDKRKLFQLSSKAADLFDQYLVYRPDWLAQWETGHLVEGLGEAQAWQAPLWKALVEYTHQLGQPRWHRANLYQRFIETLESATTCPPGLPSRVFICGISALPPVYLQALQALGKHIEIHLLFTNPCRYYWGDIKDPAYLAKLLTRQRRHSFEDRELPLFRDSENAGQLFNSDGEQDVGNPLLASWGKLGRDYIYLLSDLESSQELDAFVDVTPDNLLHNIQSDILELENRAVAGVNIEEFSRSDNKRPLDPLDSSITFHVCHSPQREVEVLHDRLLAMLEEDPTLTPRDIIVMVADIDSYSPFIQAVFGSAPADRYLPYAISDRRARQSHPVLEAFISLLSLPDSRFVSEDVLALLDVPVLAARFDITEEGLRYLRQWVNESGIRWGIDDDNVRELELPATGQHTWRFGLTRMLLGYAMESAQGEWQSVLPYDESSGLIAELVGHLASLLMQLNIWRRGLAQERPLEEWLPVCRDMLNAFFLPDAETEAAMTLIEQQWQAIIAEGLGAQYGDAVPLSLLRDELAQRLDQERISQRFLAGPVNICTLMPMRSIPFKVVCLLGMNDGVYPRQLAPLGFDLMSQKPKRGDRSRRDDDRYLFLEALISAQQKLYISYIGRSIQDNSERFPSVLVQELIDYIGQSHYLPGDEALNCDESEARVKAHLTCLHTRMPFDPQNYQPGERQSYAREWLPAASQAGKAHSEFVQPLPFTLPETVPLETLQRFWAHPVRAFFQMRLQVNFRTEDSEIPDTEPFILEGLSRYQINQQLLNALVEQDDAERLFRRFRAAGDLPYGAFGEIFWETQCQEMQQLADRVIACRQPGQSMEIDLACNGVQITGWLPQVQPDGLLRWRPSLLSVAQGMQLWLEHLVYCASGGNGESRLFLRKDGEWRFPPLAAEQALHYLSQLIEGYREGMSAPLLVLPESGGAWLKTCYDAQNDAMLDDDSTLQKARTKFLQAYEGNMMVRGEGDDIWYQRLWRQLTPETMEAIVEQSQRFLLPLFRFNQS
# T1 sequence (P08394 whole entry): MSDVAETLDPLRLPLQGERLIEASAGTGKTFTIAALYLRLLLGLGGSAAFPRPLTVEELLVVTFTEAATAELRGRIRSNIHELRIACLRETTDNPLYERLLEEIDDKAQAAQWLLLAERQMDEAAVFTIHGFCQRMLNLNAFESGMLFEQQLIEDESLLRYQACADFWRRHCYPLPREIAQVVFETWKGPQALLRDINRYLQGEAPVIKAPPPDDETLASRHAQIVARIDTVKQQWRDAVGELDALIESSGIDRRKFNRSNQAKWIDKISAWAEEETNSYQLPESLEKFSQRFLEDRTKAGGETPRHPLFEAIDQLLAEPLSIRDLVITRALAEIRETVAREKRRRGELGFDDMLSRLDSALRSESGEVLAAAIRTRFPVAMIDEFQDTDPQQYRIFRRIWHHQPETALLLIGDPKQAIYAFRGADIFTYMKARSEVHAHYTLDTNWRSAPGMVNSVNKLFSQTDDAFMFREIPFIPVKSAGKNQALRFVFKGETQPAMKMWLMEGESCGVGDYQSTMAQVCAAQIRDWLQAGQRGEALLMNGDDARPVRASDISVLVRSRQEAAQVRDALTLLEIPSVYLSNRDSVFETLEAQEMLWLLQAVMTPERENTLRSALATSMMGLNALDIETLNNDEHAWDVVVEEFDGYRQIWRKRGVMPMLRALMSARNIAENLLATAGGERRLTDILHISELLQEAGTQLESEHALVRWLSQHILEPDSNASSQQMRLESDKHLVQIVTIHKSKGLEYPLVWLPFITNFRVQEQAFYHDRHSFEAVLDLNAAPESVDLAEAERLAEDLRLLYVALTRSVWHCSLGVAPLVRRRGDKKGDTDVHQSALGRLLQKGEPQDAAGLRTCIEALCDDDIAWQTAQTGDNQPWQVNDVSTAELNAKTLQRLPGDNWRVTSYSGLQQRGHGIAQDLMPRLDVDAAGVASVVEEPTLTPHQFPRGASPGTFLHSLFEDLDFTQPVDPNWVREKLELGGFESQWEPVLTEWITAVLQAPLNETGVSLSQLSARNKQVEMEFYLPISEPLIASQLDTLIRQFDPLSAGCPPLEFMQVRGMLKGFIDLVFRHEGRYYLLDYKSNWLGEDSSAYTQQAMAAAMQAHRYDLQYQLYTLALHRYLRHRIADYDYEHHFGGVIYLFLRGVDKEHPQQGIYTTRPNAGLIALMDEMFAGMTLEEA
# [1] = Counterscreen for AddAB inhibitors: absorbance-based bacterial cell-based high throughput dose response assay for inhibitors of bacterial viability. [Related pubchem assays (depositor defined):AID435030, AID449728, AID449731, AID488942, AID488955, AID488956]; format: functional
# Cytochrome P450 2C9 = Cytochrome P450 2C9 (Homo sapiens, UniProt P11712)
# Cytochrome P450 3A4 = Cytochrome P450 3A4 (Homo sapiens, UniProt P08684);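 further: CYP3A4 tested as one member of a cytochrome P450 panel screen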
# Cytochrome P450 2D6 = Cytochrome P450 2D6 (Homo sapiens, UniProt P10635);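 further: CYP2D6 member of a cytochrome P450 panel assay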
# Escherichia coli = experiment: microbe, parasite or virus in culture
# Vero = experiment: cells; format: functional; settings: Chlorocebus sabaeus
# [2] = Luminescence Cell-Based Dose Response HTS to Identify Inhibitors of 5'UTR Stem-Loop Driven Prion Protein mRNA Translation in H4 Neuroglioblastoma Cells. [Related pubchem assays: 1827 (Project Summary), 1813 (Primary HTS)]; format: functional
# cells [3] = format: functional, cell-based
# [4] = NIH-3T3 fibroblast cytotoxicity, dose response, cytotoxicity control, cell-based, fluorescence, Alamar Blue, secondary assay (AID 2327); format: functional;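 further: NIH-3T3 mouse fibroblasts cultured with fluconazole at 8 µg/mL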
# [5] = luciferase reporter signal suppression in cells – H4 neuroglioma cells, luminescence, dose response (AID 1990); format: functional, cell-based
# [6] = Trypanosoma cruzi growth suppression in host cells – NIH3T3 host cells, beta-gal luminescence, confirmation (AID 2044); format: functional, cell-based;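 further: intracellular parasites grown in NIH/3T3 mouse fibroblasts as host cells; luminescent beta-galactosidase reporter signal from transgenic T. cruzi replicating inside host cells; inhibitors lower the luminescence signal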
# cells [7] = format: functional, cell-based; remark: listed apart in the source
# [8] = NIH3T3 cell viability loss – ATP luminescence, mouse fibroblasts, counter-screen, dose response (AID 2010); format: functional, cell-based;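 further: cells exposed to compound for about 90 hours before reading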
# [9] = alpha-synuclein stem-loop luciferase translation blockers – H4 neuroglioma cells, luminescence, confirmation (AID 1988); format: functional, cell-based
# INS1 = experiment: INS-1E survival protection against cytokine death – cell-based, luminescence, retest, dose response (AID 449756); format: functional; settings: Rattus norvegicus;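 further: cell death triggered by IL-1 beta plus TNF-alpha plus IFN-gamma mixture; protective hits raise ATP signal compared with cytokine alone wells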
# Sequence of Cytochrome P450 2C9 (P11712 whole entry): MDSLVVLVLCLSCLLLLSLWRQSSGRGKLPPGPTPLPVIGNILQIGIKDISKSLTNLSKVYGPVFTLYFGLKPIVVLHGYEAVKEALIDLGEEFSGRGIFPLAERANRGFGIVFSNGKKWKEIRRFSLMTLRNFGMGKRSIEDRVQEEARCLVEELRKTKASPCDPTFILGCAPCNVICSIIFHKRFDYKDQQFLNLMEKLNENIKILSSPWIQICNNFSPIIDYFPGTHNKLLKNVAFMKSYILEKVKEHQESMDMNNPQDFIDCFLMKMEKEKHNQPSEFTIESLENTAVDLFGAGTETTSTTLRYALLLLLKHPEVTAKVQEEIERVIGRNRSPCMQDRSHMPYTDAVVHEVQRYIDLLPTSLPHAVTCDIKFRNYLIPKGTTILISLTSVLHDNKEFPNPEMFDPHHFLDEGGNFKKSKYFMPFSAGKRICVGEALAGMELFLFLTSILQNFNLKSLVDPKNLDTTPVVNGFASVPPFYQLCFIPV
# Sequence of Cytochrome P450 2D6 (P10635 whole entry): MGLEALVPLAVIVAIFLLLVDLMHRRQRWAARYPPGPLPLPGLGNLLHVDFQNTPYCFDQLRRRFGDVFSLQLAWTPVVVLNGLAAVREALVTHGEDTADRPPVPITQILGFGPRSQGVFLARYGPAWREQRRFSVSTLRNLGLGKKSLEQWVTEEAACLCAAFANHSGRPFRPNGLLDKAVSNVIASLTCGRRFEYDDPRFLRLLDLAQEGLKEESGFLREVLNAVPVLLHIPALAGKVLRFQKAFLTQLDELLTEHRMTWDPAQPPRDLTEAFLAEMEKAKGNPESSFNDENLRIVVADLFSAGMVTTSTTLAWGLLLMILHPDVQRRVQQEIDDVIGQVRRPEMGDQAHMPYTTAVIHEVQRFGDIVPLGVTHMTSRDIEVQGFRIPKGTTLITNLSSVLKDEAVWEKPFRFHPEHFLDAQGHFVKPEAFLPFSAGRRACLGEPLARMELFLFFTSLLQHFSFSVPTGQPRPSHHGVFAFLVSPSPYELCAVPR
# Sequence of Cytochrome P450 3A4 (P08684 whole entry): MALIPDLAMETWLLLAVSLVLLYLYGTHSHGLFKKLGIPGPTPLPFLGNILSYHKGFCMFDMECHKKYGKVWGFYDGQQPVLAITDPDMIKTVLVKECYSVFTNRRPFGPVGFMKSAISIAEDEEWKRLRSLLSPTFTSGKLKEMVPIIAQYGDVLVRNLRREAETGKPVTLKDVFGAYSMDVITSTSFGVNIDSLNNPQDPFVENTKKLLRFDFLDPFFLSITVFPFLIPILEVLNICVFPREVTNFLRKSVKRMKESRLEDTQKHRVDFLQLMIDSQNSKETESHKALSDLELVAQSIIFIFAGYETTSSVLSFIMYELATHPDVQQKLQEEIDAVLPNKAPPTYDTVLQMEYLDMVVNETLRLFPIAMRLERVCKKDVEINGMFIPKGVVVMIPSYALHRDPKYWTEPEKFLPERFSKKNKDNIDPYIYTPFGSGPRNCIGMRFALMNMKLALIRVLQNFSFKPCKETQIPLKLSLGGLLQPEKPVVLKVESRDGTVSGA
smiles,measurement,setting,value
COc1ccc(NC(=O)Cn2cc(C(=O)c3ccco3)c3ccccc32)cc1,IC50,Exodeoxyribonuclease V,> 119 µM (inactive)
same,IC50,[1],> 119 µM (inactive)
COc1cccc(-c2nc(N(C)C)c3ccccc3n2)c1,AC50,Cytochrome P450 2C9,inconclusive
CN(C)C(=O)N1CCCC(C(=O)NCCc2ccccc2)C1 (stereo not given),AC50,Cytochrome P450 2C9,inconclusive
same,AC50,Cytochrome P450 3A4,39.8 µM (inconclusive)
same,AC50,Cytochrome P450 2D6,10 µM (inconclusive)
CCn1cc(C(=O)NCCCO)c(=O)c2cc(F)c(N3CCN(C)CC3)cc21,AC50,Escherichia coli,2.5 µM (active)
Cc1ccnc(NS(=O)(=O)c2ccc(N)cc2)n1 [SULFAMERAZINE],AC50,Cytochrome P450 2C9,inconclusive
COc1ccc(Nc2nc(-c3ccccc3)nc3ccccc23)cc1S(=O)(=O)N1CCOCC1,CC50,Vero,> 25 µM (active)
CN1CCCC2(CCN(C(=O)c3ccncc3)CC2)C1,AC50,Cytochrome P450 2C9,inconclusive
same,AC50,Cytochrome P450 2D6,7.94 µM (inconclusive)
CCC(C)n1nccc1NC(=O)C(C)Cl (stereo not given),AC50,Escherichia coli,31.4 µM (active)
Cc1cc(C(=O)N2CCN(c3ccccc3)CC2)no1,AC50,Escherichia coli,28.2 µM (active)
COc1cccc(/C=N\NC(=O)c2ccc(Cn3cc(Br)c([N+](=O)[O-])n3)o2)c1O,EC50,[2],20.2 µM (active)
same,EC50,cells [3],28.6 µM (active)
same,EC50,[4],> 150 µM (inactive)
same,IC50,Exodeoxyribonuclease V,> 119 µM (inactive)
same,EC50,[5],26 µM (active)
same,EC50,[6],1.09 µM (active)
same,EC50,cells [7],51.1 µM (active)
same,IC50,[1],31.8 µM (inactive)
same,EC50,[8],> 60 µM (not active)
same,EC50,[9],10.4 µM (active)
same,AC50,INS1,1.89 µM (active)
COc1ccc(NC(=O)C2CCN(Cc3cnn(-c4ccccc4)c3-n3cccc3)CC2)cc1OC,AC50,Escherichia coli,> 150 µM (inactive)
